We go through one compound from PMC12067128, “Macrocyclization: Enhancing Drug-like Properties of Discoidin Domain Receptor Kinase Inhibitors” (ACS Medicinal Chemistry Letters, 2025).

Series [1] can be described thus: Microsomes stability (clearance in human microsomes). Type of series: in vitro ADME. As to conditions: liver microsomes, pH 7.4, 0.8 mg protein/mL, 1 mM NADPH, 37 °C, read-out: CLint h mic (clearance in human microsomes). The protocol:
values in Caco-2 assay were: <10 nm/s = low level; 10-50 nm/s = medium level; >50 nm/s = high […]
Test compounds were incubated, in duplicate, at the concentration of 1 μM with liver microsomes (0.8 mg protein/mL) in Dulbecco’s buffer (pH 7.4) at 37 °C in the presence of 1 mM NADPH. At different time points (0, 5, 10, 20, 30, and 60 min), 50 μL aliquots of the incubates were taken, added with 80 μL of ice-cold acetonitrile, and 20 μL of 1 μM warfarin in acetonitrile (injection check) to stop the reaction, and samples were centrifuged. The supernatants were analyzed by LC−MS/MS for unchanged compounds. Test compounds were incubated with liver microsomes in Dulbecco’s buffer in the absence of NADPH for 0 and 60 min, as control. Midazolam at the concentration of 1 μM, was incubated with microsomes as positive control for phase I activity of microsomes. Control samples were processed as test compound samples.

A short description of series [2]: Δlog kW IAM polarity descriptor. It counts as physicochemical. As to conditions: polarity in aqueous medium. The protocol:
(§1) Polarity is quantified by two descriptors: EPSA and Δlog kw ^IAM. The first is measured in an almost fully nonpolar environment, and the second describes polarity in an aqueous medium. […] This is also in line with the higher solubility of KIMCs over 1.

The target of another series is T1, DDR1 (Homo sapiens, UniProt Q08345).
T1 construct: ProLink™ (PK) tagged full-length DDR1b; host or cells: U2OS human osteosarcoma cells (PathHunter U2OS DDR1)
T1 sequence (Q08345 19-913): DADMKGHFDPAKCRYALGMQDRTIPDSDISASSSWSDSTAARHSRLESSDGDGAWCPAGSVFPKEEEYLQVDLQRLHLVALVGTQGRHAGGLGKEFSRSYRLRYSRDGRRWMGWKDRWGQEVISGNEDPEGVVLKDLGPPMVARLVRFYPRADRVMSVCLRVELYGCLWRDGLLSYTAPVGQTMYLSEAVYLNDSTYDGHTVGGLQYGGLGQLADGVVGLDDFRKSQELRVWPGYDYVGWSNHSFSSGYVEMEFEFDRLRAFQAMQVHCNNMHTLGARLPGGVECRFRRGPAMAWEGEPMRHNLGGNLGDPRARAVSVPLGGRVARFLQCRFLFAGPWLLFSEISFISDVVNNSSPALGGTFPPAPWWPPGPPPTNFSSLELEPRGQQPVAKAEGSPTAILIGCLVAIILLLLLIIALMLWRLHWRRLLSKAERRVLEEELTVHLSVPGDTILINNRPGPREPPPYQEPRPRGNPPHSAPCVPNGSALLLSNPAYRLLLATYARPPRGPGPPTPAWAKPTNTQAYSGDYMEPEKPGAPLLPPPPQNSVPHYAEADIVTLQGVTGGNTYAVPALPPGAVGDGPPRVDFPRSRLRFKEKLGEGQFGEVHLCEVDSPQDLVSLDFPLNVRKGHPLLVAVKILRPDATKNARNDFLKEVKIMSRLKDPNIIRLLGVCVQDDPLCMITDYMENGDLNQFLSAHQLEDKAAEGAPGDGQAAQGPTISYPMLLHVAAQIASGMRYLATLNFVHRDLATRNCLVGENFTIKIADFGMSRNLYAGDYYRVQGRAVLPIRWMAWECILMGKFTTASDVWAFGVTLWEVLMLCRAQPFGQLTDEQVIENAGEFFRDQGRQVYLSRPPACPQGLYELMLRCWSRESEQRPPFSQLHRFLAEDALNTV
The experiment in a line: PathHunter U2OS DDR1 Functional Assay (DDR1 cellular assay). It counts as cell-based. As to conditions: U2OS PathHunter cells, collagen II stimulation; read-out: Cell DDR1 IC50. The method, then:
page 17: In vitro Biology DDR1 cellular assay The activity of Discoidin Domain-containing Receptor protein kinase (DDR) inhibitors was determined using the PathHunter® U2OS DDR1 Functional Assay which employs Enzyme Fragment Complementation (EFC) technology, where the β-galactosidase (β-gal) enzyme is split into two fragments, ProLink (PK) and Enzyme Acceptor (EA). Independently these fragments […] β-gal enzyme. In the PathHunter® U2OS DDR1 Functional Assay, the U2OS human osteosarcoma cell line is modified to co-express a ProLinkTM (PK) tagged full-length DDR1b and an Enzyme Acceptor (EA) tagged SH2 domain. Collagen II, as a ligand, induces activation of DDR1b which results in cross-phosphorylation. The SH2-EA fusion protein then specifically binds the phosphorylated receptor resulting in complementation of the two fragments of β-gal and formation of a functional enzyme. β-gal activity is then quantitatively detected using a chemiluminescent substrate. PathHunter® Human U2OS DDR1 cells were prepared in AssayCompleteTM Cell Plating 16 Reagent (DiscoverX 93-0563R16A) and plated at 5000 cells/well in a 384-well white, clear-bottom, sterile plate (ThermoFisher 142762) and incubated for 90 minutes at 37 °C, 5% CO2. Test compounds were serially diluted from a top concentration of 10 mM (1000x final assay concentration) directly in a 384-well low-volume polypropylene plate (Greiner bio-one 784201) using an Echo 555 acoustic liquid handler (Labcyte). Test compounds were diluted in AssayCompleteTM Cell Plating 16 Reagent then added to cells using an Integra ViaFlow384 electronic reagent dispenser and pre-incubated at 37 °C, 5% CO2 for 30 minutes. Following compound pre-incubation, the cells were stimulated with 20 μg/ml Bovine Type II Collagen (DiscoverX 92-1090) with incubation for 20 hours at 37 °C, 5% CO2. Next, PathHunter Detection Reagent (DiscoverX 93-[…]) was added to the cells, incubated for 60 minutes at 25 °C in the dark, prior to capturing the chemiluminescent signal on a PHERAstar (BMG LABTECH). The percentage of inhibition was calculated for each concentration of compound using a 0.1% DMSO vehicle/Collagen II control response as a 0% inhibition and a 10 nM Dasatinib/Collagen II positive 17 page 18: control response as a 100% inhibition. The final assay concentration of the top of the test compound CRC was 10 μM. 18

A short description of series [3]: log kW IAM (immobilized artificial membrane chromatography). The settings on record: lipophilicity descriptor, phospholipid interaction. It counts as physicochemical. From the text:
(§2) Lipophilicity has been obtained in four different systems. BRlogD and ChromlogD are chromatographic surrogates of log Doct and, despite showing different values, are linearly correlated (Figure S4). Log k′ 80 PLRP-S is a surrogate of log Dtol. Log kw ^IAM mimics the interaction between the compounds and the phospholipids of membranes. The combination of the experimental lipophilicity descriptors is essential to evaluate lipophilicity in different regions of the membrane bilayer. This complete lipophilicity profile may give an idea of the permeability potential of poorly soluble compounds for which standard permeability measurements are unreliable. […] This is supported by its low IC50 value in the cell-based assay.

The nature of series [4]: log k'80 PLRP-S chromatographic descriptor. It counts as physicochemical. The settings on record: surrogate of log Dtol.
Description: as §2

The next series is described as follows: Kinetic solubility. Type of series: physicochemical. The method, then:
Using a stock solution of test compound in 100% DMSO, duplicate dilutions were prepared at a nominal concentration of 200 µM in 0.1 M phosphate buffered saline (PBS) at pH 7.4, with a 2% final DMSO content. Test compound calibration standards were prepared at 200 µM and 10 µM in 100%
DMSO. The PBS and DMSO dilutions were equilibrated on a shaking platform at room temperature for two hours prior to filtration using a Multiscreen HTS solubility filter plate (Millipore). Filtrates were analysed by LC-UV-MS and the concentration of compound in PBS filtrate determined by comparing the UV absorbance peak with that of the two DMSO calibration standards. Mass spectrometry will be used to confirm the presence of the expected molecular ion in the UV peak measured. The effective range of the assay is 5 – 200 µM. […]

Series [5] can be described thus: BRlogD chromatographic lipophilicity. It counts as physicochemical. The settings on record: XBridge Shield RP18, pH 7.0, 60% acetonitrile.
Description: The original method was described in a previous paper.e Briefly, a HPLC Thermo Fisher Scientific Dionex Ultimate 3000 instrument equipped with a Low-Pressure Mixing Gradient Pump LPG-3400 SD, ACC-3000 autosampler with termostatable column compartment, a DAD-3000 RS Detector and Chromeleon Data System Version 7.2.10 was used. Deionized water and HPLC grade acetonitrile were used throughout. The mobile phases consisted of 20 mM ammonium acetate at pH 7.0 and acetonitrile 60% v/v. Samples were dissolved in a 1:1 mixture of buffer/acetonitrile in the concentration range of 50–100 ug/mL. A 10uL volume of each solution was injected at 30°C and flow rate was 1 mL/min. The dead time, t0, was determined by monitoring the baseline disturbance.
retention time (tR) was measured on a XBridgeTM Shield RP18 (Waters, 5cm x 4.6 mm, 5 µm particle size, 130Å pore size). Isocratic log k’ (capacity factor k’ = (tR - t0)/t0) values were measured. The relationship between log D and log k’60 has been determined previously and is reported below (Eq.
We termed this log D as BRlogD.
A short description of series [6]: Chamelogk chameleonicity descriptor. Type of series: physicochemical. The settings on record: >0.6 = chameleons, <0.6 = non-chameleons. The protocol:
Finally, chameleonicity was measured with the recently described Chamelogk method (Table ), where 0.6 is the threshold value to distinguish chameleons from non-chameleons.

The nature of series [7]: ChromLogD chromatographic lipophilicity. As to conditions: C18 column, pH 7.4. It counts as physicochemical. The method, then: The chromatographic method was based on the differential retention times of test compounds on a C18 column (Luna C18(2), 30 x 2mm, […], 100 Å) under controlled liquid chromatography conditions, comparing retention times with those of standards (Benzyl Alcohol, p-Nitrophenol, Bromobenzene, Anthracene) with known log D values. Stock solutions (10 mM in DMSO) of test compounds were diluted to a final concentration of 1 mM. The mobile phases consisted of A (20mM Ammonium Acetate buffered to pH 7.4 with ammonia hydroxide) and B (ACN). The LC gradient profile was the following: a linear increase to 90% B during 0.0 to 1.3 min, hold at 90 % B during 1.3 to 1.53 min then back to 0.0% B from 1.53 to 1.60 min, hold at 0% B until the end of the run (2.00 min). 1 μL of the sample volume was injected, using a flow rate of 0.5 mL/min and a column temperature of 40°C. All compounds were detected by UPLC/MS analysis using a a Waters ACQUITY UPLC equipped with a Photo Diode Array (PDA) detector coupled with a Waters ACQUITY QDa single quadrupole mass spectrometer with an Electrospray ionization (ESI) source.
The retention times were obtained by processing data in Waters Openlynx. The standards are then plotted in excel and the best fit line was used as the basis for calculating the unknown LogD values from the retention times of the peaks obtained.

The nature of a further series: EPSA polarity descriptor. Type of series: physicochemical. The settings on record: almost fully nonpolar environment; polarity in nonpolar environment. The protocol:
as §1

SMILES strings stand for the structures.

Broadly, the IC50 is the point on the concentration scale where inhibition reaches its midpoint. The term kinetic solubility denotes solubility judged after dilution from a stock solution rather than from solid. For orientation: chromatographic logD means a lipophilicity value derived from retention on a column. A low value points to lower lipophilicity. In the case of `Cc1ccc(C(=O)Nc2cccc(C(F)(F)F)c2)cc1-c1cc2nc(Nc3cnn(C)c3)ncc2[nH]1` [Compound 1], the microsomal CLint at 1 h, 1 µM in [1] came to 19 ± 2.1 µL/min/mg. Besides, in series [2], the “Δlog kW^IAM” value was 0.47. On DDR1, the IC50 worked out at 3 nM. The “log kW^IAM” value in series [3] stood at 2.53. Further, in series [4], the “logk'80 PLRP-S” value is -0.3. Further, the “kinetic solubility (in words)” value in “Kinetic solubility” was “almost insoluble”. In addition, the solubility (kinetic) at 2 h in the series “Kinetic solubility” (phosphate buffered saline, PBS pH 7.4, 2% DMSO, 2 h room temperature, assay range 5-200 µM, read-out: KS (kinetic solubility)) was < 5 µM. In [5], this compound displayed a BRlogD of 3.36. The Chamelogk in series [6] was 0.99. In [7], this compound registered a chromatographic logD of 2.92. This compound also had an EPSA in “EPSA polarity descriptor” of 106 A^2.
